Earlier results as cited in patent US20250302767A1, “TREATMENT OF CANCER AND AUTOIMMUNE DISORDERS USING NANO POLYMERS OF HISTONE DEACETYLASE INHIBITORS” (University of Virginia Patent Foundation, priority 2021, published 2025).

Assays:
[1] = system: PTCL; settings: patients with PTCL, single agent, cited from earlier work; for Outcomes: ORR: pivotal trial cited per drug (romidepsin: trial (6) Coiffier et al., 2014); for Outcomes: CR / Outcomes: DOR: pivotal trial cited per drug (romidepsin: trial (6))
[2] = system: ALCL; settings: patients with ALCL, pivotal trials (3, 4); cited from earlier work

Compound | Outcomes: ORR [1] [%] | Outcomes: CR [1] [%] | Outcomes: DOR [1] [months] | Outcomes: CR [2] [%] | Outcomes: DOR [2] [months] | Outcomes: ORR [2] [%]
O=C(/C=C/c1cccc(S(=O)(=O)Nc2ccccc2)c1)NO [Belinostat] | 26 | 11 | 13.6 |  |  | 
Nc1cc(F)ccc1NC(=O)c1ccc(CNC(=O)/C=C/c2cccnc2)cc1 [Chidamide, N-(2-Amino-4-fluorophenyl)-4-[[[(E)-3-pyridin-3-ylprop-2-enoyl]amino]methyl]benzamide] | 28 | 14 | 9.9 |  |  | 
C#CCC(Cc1cnc2nc(N)nc(N)c2n1)c1ccc(C(=O)N[C@@H](CCC(=O)O)C(=O)O)cc1 (stereo partly drawn) [Pralatrexate] | 29 | 11 | 10.1 |  |  | 
Brentuximab vedotin |  |  |  | 57 | 13.2 | 86
